Read-outs that look alike come from different tables or passages of the source.
Tests used:
P2X7 receptor = target: T1, P2X7 receptor (Homo sapiens, UniProt Q99572); conditions: cited from earlier work
T1 sequence (Q99572 1-595): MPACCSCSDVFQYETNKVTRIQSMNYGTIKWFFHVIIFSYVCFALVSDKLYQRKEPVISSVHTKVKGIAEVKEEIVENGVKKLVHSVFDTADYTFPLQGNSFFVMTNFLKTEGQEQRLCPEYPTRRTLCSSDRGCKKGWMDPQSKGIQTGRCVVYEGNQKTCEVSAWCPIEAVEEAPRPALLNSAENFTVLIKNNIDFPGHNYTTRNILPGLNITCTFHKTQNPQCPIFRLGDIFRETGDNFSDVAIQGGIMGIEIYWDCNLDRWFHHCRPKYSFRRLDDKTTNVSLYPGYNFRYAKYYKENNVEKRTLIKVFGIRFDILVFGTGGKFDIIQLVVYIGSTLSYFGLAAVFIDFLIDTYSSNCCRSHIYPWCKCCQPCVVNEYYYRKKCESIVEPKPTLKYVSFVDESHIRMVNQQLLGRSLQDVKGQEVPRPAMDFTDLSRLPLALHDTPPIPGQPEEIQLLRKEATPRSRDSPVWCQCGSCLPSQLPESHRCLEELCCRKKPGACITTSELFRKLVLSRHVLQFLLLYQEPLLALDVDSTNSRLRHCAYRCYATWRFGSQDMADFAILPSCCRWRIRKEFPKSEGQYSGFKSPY

EV71 [1] = experiment: Inhibition of EV71 replication in RD cells at 0.1, 1, 10 and 100 μM (CPE, crystal violet); assay type: cell-based, Enterovirus 71; parameters: key to Inhibition of EV71 replication: −: no activity
Description: Inhibitory effect of each P2X receptor antagonists and agonists on EV71 replication was measured at 0.1, 1, 10, and 100 μM. Specific procedures refer to “1” of Example 1. after infection, however, cells need to be incubated for 3˜4 days, stained with crystal violet, and observed under optical microscope to determine whether or not CPE (cytopathic effect) was present. In addition, the effect of compounds at each concentration on cytotoxicity to RD cells was determined. After culturing RD cells in various concentrations of compounds for 3˜4 days, stained with crystal violet, and observed under optical microscope to observe whether or not cell layer was damaged. Compounds capable of protecting cells from infection without damage of healthy cell layer can inhibit EV71 replication in RD cells.

P2X4 receptor = target: T2, P2X4 receptor (Homo sapiens, UniProt Q99571); conditions: cited from earlier work
T2 sequence (Q99571 1-388): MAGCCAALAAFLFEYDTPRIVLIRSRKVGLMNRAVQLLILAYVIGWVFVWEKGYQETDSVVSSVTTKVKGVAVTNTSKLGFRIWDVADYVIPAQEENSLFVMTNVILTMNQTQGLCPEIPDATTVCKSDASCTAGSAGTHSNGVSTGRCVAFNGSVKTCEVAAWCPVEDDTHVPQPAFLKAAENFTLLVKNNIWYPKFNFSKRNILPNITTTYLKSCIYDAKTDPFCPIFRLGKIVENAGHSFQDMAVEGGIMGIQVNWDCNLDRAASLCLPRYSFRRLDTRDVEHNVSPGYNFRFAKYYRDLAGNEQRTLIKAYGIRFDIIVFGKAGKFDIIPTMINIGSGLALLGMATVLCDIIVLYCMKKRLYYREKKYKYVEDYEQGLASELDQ

P2X1 receptor = target: T3, P2X1 receptor (Homo sapiens, UniProt P51575); parameters: key: −: no activity; +: activating concentration >10 μM; ++: activating concentration 1~10 μM; +++: activating concentration <1 μM; conditions: cited from earlier work
T3 sequence (P51575 1-399): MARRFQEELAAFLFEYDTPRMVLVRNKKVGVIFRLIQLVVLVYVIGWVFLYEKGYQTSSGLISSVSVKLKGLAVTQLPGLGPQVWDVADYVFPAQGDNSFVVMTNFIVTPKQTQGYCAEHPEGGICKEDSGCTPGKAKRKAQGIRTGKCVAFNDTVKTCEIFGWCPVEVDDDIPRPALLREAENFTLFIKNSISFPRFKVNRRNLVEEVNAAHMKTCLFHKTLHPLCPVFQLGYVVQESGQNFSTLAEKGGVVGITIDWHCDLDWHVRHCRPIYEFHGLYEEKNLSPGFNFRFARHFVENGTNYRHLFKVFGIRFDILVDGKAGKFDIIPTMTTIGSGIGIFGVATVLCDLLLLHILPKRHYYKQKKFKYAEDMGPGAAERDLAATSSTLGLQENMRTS

P2X3 receptor = target: T4, P2X3 receptor (Homo sapiens, UniProt P56373); conditions: cited from earlier work
T4 sequence (P56373 1-397): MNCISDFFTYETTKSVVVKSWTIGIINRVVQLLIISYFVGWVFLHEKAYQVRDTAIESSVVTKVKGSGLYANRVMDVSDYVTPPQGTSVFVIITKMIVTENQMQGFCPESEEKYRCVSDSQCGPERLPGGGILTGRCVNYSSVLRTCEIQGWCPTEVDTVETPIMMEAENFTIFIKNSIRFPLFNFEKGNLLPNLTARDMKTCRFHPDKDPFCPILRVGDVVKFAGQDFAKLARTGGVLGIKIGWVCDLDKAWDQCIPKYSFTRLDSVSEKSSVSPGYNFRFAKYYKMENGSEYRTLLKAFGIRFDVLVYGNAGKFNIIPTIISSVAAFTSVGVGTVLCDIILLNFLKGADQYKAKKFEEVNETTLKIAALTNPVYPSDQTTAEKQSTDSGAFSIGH

P2X2 receptor = target: T5, P2X2 receptor (Homo sapiens, UniProt Q9UBL9); parameters: key: −: no activity; +: activating concentration >10 μM; ++: activating concentration 1~10 μM; +++: activating concentration <1 μM; conditions: cited from earlier work
T5 sequence (Q9UBL9 1-471): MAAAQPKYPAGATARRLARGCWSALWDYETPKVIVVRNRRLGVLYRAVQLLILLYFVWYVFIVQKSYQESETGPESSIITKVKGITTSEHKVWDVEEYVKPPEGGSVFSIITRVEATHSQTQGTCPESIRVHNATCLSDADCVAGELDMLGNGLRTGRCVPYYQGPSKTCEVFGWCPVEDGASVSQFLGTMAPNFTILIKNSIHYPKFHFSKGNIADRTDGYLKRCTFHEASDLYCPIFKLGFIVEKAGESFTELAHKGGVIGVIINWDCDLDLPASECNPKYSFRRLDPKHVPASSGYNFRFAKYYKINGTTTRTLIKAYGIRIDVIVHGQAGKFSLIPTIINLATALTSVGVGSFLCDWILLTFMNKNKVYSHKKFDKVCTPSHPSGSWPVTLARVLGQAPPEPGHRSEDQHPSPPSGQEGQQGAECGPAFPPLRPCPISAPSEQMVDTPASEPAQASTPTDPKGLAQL

P2X5 receptor = P2X5 receptor (Homo sapiens, UniProt Q93086); conditions: cited from earlier work
EV71 [2] = experiment: Effects of other antagonists and agonists on EV71 (Table 9); assay type: cell-based, Enterovirus 71; parameters: key: “NO” indicates there is negative

Chain of P2X5 receptor (Q93086 whole entry): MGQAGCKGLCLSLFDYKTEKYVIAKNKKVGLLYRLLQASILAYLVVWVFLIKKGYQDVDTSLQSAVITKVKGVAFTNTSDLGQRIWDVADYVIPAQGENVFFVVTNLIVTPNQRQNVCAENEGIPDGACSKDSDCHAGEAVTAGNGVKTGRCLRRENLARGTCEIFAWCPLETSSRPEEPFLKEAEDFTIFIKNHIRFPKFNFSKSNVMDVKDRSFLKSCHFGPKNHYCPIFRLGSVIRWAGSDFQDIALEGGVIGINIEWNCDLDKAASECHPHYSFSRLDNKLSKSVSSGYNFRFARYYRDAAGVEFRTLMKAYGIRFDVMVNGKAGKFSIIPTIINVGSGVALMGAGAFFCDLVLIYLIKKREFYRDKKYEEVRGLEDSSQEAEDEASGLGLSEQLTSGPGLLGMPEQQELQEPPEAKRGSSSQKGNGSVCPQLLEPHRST

Row | Compound | inhibition of EV71 replication (statement in words) (EV71 [1]) | Inhibition of EV71 replication (EV71 [1]; Table 8, antagonists) | P2X receptors 1 (P2X1 receptor; Table 8, antagonists) | P2X receptors 3 (P2X3 receptor; Table 8, antagonists) | P2X receptors 2 (P2X2 receptor; Table 8, antagonists) | P2X receptors 5 (P2X5 receptor; Table 8, agonists) | P2X receptors 5 (P2X5 receptor; Table 9, agonists) | Inhibition of EV71 replication (EV71 [1]; Table 8, agonists) | P2X receptors 4 (P2X4 receptor; Table 8, agonists) | P2X receptors 1 (P2X1 receptor; Table 8, agonists) | P2X receptors 3 (P2X3 receptor; Table 8, agonists) | EV71 Log10 reduction (EV71 [2]) | P2X receptors 2 (P2X2 receptor; Table 8, agonists) | further results
1 | O=C(Nc1ccc(C(=O)Nc2ccc(C(=O)Nc3ccc(S(=O)(=O)O)c4cc(S(=O)(=O)O)cc(S(=O)(=O)O)c34)cc2)cc1)Nc1ccc(C(=O)Nc2ccc(C(=O)Nc3ccc(S(=O)(=O)O)c4cc(S(=O)(=O)O)cc(S(=O)(=O)O)c34)cc2)cc1 [NF279, 8,8′-(carbonylbis(imino-4,1-phenylenecarbonylimino-4,1-phenylenecarbonylimino))bis(1,3,5-naphthalenetrisulfonic acid)] | can also inhibit EV71 replication | + (+: inhibitory concentration >300 nM) | +++ (+++: inhibitory concentration <10 nM) | + (+: inhibitory concentration >300 nM) | + (+: inhibitory concentration >300 nM) |  |  |  |  |  |  |  |  | P2X receptors 7 (P2X7 receptor; Table 8, antagonists): + (+: inhibitory concentration >300 nM); P2X receptors 4 (P2X4 receptor; Table 8, antagonists): −
2 | O=c1ccn([C@@H]2O[C@H](COP(=O)(O)OP(=O)(O)OP(=O)(O)O)[C@@H](O)[C@H]2O)c(=O)[nH]1 [UTP, uridine triphosphate] |  |  |  |  |  | + (+: activating concentration >10 μM) | ✓ (✓ activating concentration >10 μM) | − | − | − | − | NO | − | 
3 | Ivermectine |  |  |  |  |  |  |  | − | ++ (++: activating concentration 1~10 μM) |  |  | NO |  | P2X receptors 4 (P2X4 receptor; Table 9, modulator, no key printed for this class): ✓ ✓ ✓
4 | CCOc1ccc(Nc2ccc(/C(=C3C=C/C(=[N+](/CC)Cc4cccc(S(=O)(=O)[O-])c4)C=C/3C)c3ccc(N(CC)Cc4cccc(S(=O)(=O)[O-])c4)cc3C)cc2)cc1.[Na+] [BBG] |  |  |  |  |  |  |  |  |  |  |  | NO |  | P2X receptors 7 (P2X7 receptor; Table 9, antagonists): ✓ ✓ ✓ (✓ ✓ ✓ activating concentration <10 nM); P2X receptors 1 (P2X1 receptor; Table 9, antagonists): ✓ (✓ activating concentration >300 nM); P2X receptors 2 (P2X2 receptor; Table 9, antagonists): ✓ (✓ activating concentration >300 nM)
5 | Cc1nc(N=Nc2cc(S(=O)(=O)O)ccc2S(=O)(=O)O)c(COP(=O)(O)O)c(C=O)c1O [iso-PPADS, pyridoxal-phosphate-6-azophenyl-2′,5′-disulphonic acid] | can also inhibit EV71 replication | + (+: inhibitory concentration >300 nM) | ++ (++: inhibitory concentration = 10~300 nM) | ++ (++: inhibitory concentration = 10~300 nM) | ++ (++: inhibitory concentration = 10~300 nM) |  |  |  |  |  |  |  |  | 
6 | bzATP |  |  |  |  |  | ++ (++: activating concentration 1~10 μM) | ✓ ✓ (✓ ✓ activating concentration 1-10 μM) | − | +++ (+++: activating concentration <1 μM) | +++ (+++: activating concentration <1 μM) | + (+: activating concentration >10 μM) | NO | ++ (++: activating concentration 1~10 μM) | P2X receptors 7 (P2X7 receptor; Table 8, agonists): ++ (++: activating concentration 1~10 μM); P2X receptors 7 (P2X7 receptor; Table 9, agonists): ✓ ✓ ✓ (✓ ✓ ✓ activating concentration <1 μM); P2X receptors 4 (P2X4 receptor; Table 9, agonists): ✓ ✓ ✓ (✓ ✓ ✓ activating concentration <1 μM); P2X receptors 1 (P2X1 receptor; Table 9, agonists): ✓ ✓ ✓ (✓ ✓ ✓ activating concentration <1 μM); P2X receptors 3 (P2X3 receptor; Table 9, agonists): ✓ (✓ activating concentration >10 μM); P2X receptors 2 (P2X2 receptor; Table 9, agonists): ✓ ✓ (✓ ✓ activating concentration 1-10 μM)
